{"source": "ChEMBL document CHEMBL5346964", "about": "“Discovery of LNP1892: A Precision Calcimimetic for the Treatment of Secondary Hyperparathyroidism” (J Med Chem, 2023)", "key": {"[1]": {"experiment": "Drug excretion in BALB/c mouse assessed as drug recovery in feces at 10 mg/kg, po", "assay_type": "ADME, organism-based", "details": "faeces, read-out: Drug recovery"}, "[2]": {"experiment": "Drug excretion in BALB/c mouse assessed as drug recovery in urine at 10 mg/kg, po", "assay_type": "ADME, organism-based", "details": "read-out: Drug recovery"}, "[3]": {"experiment": "Kinetic solubility of compound in SIF upto 500 uM measured after 16 hrs under shaking condition by UV-visible method", "assay_type": "physicochemical", "details": "read-out: Kinetic_solubility"}, "[4]": {"experiment": "Toxicity in mouse assessed as NOAEL", "details": "in vivo"}, "[5]": {"experiment": "Cmax in Sprague-Dawley rat at 1 mg/kg, iv measured upto 24 hrs by LC-MS/MS analysis", "assay_type": "ADME, organism-based", "parameters": "dose 1 mg/kg, time < 24 hrs, route iv", "details": "in vivo"}, "[6]": {"experiment": "Effect on parathyroid hormone in overnight fasted adenine diet-induced chronic kidney disease Wistar rat model plasma assessed as reduction in PTH level at 1 mg/kg, po measured after 1 hrs of post treatment by sandwich ELISA analysis", "assay_type": "functional", "parameters": "scale not given: the % may be the effect or the level left"}, "[7]": {"experiment": "AUClast in Sprague-Dawley rat at 10 mg/kg, po administered as suspension measured upto 24 hrs by LC-MS/MS analysis", "assay_type": "ADME, organism-based", "parameters": "dose 10 mg/kg, time < 24 hrs, route po", "details": "in vivo"}, "[8]": {"experiment": "Kinetic solubility of compound in FeSSIF upto 500 uM measured after 16 hrs under shaking condition by UV-visible method", "assay_type": "physicochemical", "details": "read-out: Kinetic_solubility"}, "[9]": {"experiment": "Metabolic stability in rat liver S9 fraction measured upto 60 mins by LC-MS/MS method", "assay_type": "ADME, subcellular", "details": "read-out: Stability"}, "[10]": {"experiment": "Toxicity in rat assessed as NOAEL", "details": "in vivo"}, "[11]": {"experiment": "Volume of distribution at steady state in Sprague-Dawley rat at 10 mg/kg, po administered as solution measured upto 24 hrs by LC-MS/MS analysis", "assay_type": "ADME, organism-based", "details": "in vivo"}, "[12]": {"experiment": "Half life in Beagle dog at 1 mg/kg, iv measured upto 24 hrs by LC/MS-MS analysis", "assay_type": "ADME, organism-based, Canis lupus familiaris", "details": "in vivo"}, "[13]": {"experiment": "Kinetic solubility of compound in 0.1N HCL upto 500 uM measured after 16 hrs under shaking condition by UV-visible method", "assay_type": "physicochemical", "details": "read-out: Kinetic_solubility"}, "[14]": {"experiment": "AUC(0 to t) in rat at 50 mg/kg per day, po via gavage administered for 2 weeks", "assay_type": "ADME, organism-based", "parameters": "dose 50 mg/kg, time 2 weeks, route po", "details": "in vivo"}, "CYP2C9": {"biological_target": "CYP2C9 (Homo sapiens, UniProt P11712)", "sequence (P11712 whole entry)": "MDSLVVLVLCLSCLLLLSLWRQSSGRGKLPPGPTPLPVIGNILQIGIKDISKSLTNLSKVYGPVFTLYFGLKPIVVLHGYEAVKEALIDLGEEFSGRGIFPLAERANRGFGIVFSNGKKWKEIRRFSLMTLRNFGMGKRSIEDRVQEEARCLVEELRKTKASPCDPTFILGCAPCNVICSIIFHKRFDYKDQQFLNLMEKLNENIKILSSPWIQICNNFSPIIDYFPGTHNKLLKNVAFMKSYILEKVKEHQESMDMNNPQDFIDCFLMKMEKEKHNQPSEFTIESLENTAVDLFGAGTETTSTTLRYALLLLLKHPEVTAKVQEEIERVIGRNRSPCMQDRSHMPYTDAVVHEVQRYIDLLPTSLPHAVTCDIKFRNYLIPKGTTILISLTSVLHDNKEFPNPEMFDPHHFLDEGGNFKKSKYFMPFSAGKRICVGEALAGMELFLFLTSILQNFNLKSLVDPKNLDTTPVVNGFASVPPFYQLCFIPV", "experiment": "Inhibition of CYP2C9 in human liver microsomes at 10 uM preincubated for 5 mins followed by NADPH addition by LC-MS/MS analysis relative to control", "assay_type": "ADME, Microsome"}, "CYP2D6": {"biological_target": "CYP2D6 (Homo sapiens, UniProt P10635)", "sequence (P10635 whole entry)": "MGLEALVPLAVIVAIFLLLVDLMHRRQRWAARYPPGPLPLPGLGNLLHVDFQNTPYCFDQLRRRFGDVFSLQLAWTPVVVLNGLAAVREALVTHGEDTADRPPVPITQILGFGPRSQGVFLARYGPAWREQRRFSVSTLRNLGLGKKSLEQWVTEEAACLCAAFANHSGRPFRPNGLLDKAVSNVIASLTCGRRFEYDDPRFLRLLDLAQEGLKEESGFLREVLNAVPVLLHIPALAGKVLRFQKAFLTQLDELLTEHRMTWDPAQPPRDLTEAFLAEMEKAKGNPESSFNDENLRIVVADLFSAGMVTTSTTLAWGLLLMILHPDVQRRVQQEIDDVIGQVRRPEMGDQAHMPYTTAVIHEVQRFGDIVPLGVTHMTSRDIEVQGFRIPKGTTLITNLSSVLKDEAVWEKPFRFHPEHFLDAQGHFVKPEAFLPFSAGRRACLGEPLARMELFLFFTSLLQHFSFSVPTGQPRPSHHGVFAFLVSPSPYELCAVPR", "experiment": "Inhibition of CYP2D6 in human liver microsomes at 1 uM preincubated for 5 mins followed by NADPH addition by LC-MS/MS analysis relative to control", "assay_type": "ADME, Microsome"}, "[15]": {"experiment": "Stability in human liver microsomes assessed as parent compound remaining measured after 60 mins in presence of NADPH by LC-MS/MS analysis", "assay_type": "ADME, Microsome", "details": "read-out: Stability"}, "[16]": {"experiment": "Protein binding in human plasma incubated for 16 hrs under shaking condition by rapid equilibrium dialysis based LC-MS/MS method", "assay_type": "ADME, cell-free", "details": "read-out: PPB"}, "[17]": {"experiment": "Tmax in BALB/c mouse at 10 mg/kg, po measured upto 24 hrs by LC/MS-MS analysis", "assay_type": "ADME, organism-based", "details": "in vivo"}, "Rattus norvegicus": {"test_system": "Rattus norvegicus", "experiment": "Acute effect on parathyroid hormone in overnight fasted adenine diet-induced chronic kidney disease Wistar rat model assessed as reduction in plasma PTH level at 3 mg/kg, po measured after 2 hrs of post treatment by sandwich ELISA analysis", "assay_type": "functional", "parameters": "scale not given: the % may be the effect or the level left"}, "[18]": {"experiment": "AUC(0 to t) in human at 10 mg/kg, po administered as single dose", "assay_type": "ADME, organism-based", "parameters": "dose 10 mg/kg, route po", "details": "in vivo"}, "[19]": {"experiment": "Kinetic solubility of compound upto 500 uM at pH 7.4 measured after 16 hrs under shaking condition by UV-visible method", "assay_type": "physicochemical", "details": "buffer, read-out: Kinetic_solubility"}, "[20]": {"experiment": "Plasma clearance in BALB/c mouse at 1 mg/kg, iv measured upto 24 hrs by LC/MS-MS analysis", "assay_type": "ADME, organism-based"}, "[21]": {"experiment": "Effect on parathyroid hormone in overnight fasted Sprague-Dawley rat assessed as reduction in plasma PTH level at 10 mg/kg, po measured after 0.5 hrs of post treatment by sandwich ELISA analysis", "assay_type": "functional", "parameters": "scale not given: the % may be the effect or the level left"}, "[22]": {"experiment": "Tmax in cynomolgus monkey at 5 mg/kg, po measured upto 24 hrs by LC/MS-MS analysis", "assay_type": "ADME, organism-based, Macaca fascicularis", "details": "in vivo"}, "[23]": {"experiment": "Kinetic solubility of compound in SGF upto 500 uM measured after 16 hrs under shaking condition by UV-visible method", "assay_type": "physicochemical", "details": "read-out: Kinetic_solubility"}, "Cytochrome P450 2B6": {"biological_target": "T1, Cytochrome P450 2B6 (Homo sapiens, UniProt P20813)", "T1 sequence (P20813 whole entry)": "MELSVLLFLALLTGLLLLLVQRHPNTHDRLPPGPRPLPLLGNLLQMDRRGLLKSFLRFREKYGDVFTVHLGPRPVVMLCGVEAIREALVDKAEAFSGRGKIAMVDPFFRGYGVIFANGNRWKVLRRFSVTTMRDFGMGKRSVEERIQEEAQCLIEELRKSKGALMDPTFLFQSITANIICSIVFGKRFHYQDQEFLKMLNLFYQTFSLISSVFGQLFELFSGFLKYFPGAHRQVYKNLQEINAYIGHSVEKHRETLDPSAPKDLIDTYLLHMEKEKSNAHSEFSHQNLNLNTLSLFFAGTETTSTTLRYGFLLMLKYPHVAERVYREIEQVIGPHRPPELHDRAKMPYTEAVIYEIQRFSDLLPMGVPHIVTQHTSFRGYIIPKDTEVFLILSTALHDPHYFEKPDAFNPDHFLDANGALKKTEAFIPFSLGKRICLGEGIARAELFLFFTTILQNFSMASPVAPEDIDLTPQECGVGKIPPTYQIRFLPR", "experiment": "Inhibition of CYP2B6 in human liver microsomes preincubated for 5 mins followed by NADPH addition by LC-MS/MS analysis", "assay_type": "ADME, Microsome"}, "[24]": {"experiment": "Kinetic solubility of compound in 20% HP-beta-CD upto 500 uM measured after 16 hrs under shaking condition by UV-visible method", "assay_type": "physicochemical", "details": "read-out: Kinetic_solubility"}}, "data": [{"compound": "Cc1ccc([C@@H]2C[C@H](CN[C@H](C)c3cccc4ccccc34)Oc3ccccc32)cc1C(=O)O.Cl", "values": [{"measurement": "dose excreted", "setting": "[1]", "result": 23, "unit": "%"}, {"measurement": "dose excreted", "setting": "[2]", "result": "< 1", "unit": "%"}, {"measurement": "solubility kinetic at 16 h, 500 µM", "setting": "[3]", "result": "> 300", "unit": "µM"}, {"measurement": "NOAEL", "setting": "[4]", "result": 50, "unit": "mg/kg/day"}, {"measurement": "Cmax", "setting": "[5]", "result": 2000, "unit": "nM"}, {"measurement": "Activity", "setting": "[6]", "result": 95, "unit": "%"}, {"measurement": "AUC(0-t) at 24 h", "setting": "[7]", "result": 23, "unit": "µM·h"}, {"measurement": "solubility kinetic at 16 h, 500 µM", "setting": "[8]", "result": "> 300", "unit": "µM"}, {"measurement": "remaining at 1 h", "setting": "[9]", "result": "> 80", "unit": "%"}, {"measurement": "NOAEL", "setting": "[10]", "result": 25, "unit": "mg/kg/day"}, {"measurement": "Vdss", "setting": "[11]", "result": 0.6, "unit": "L/kg"}, {"measurement": "half-life", "setting": "[12]", "result": 5, "unit": "h"}, {"measurement": "solubility kinetic at 16 h, 500 µM", "setting": "[13]", "result": "> 200", "unit": "µM"}, {"measurement": "AUC(0-t) at 336 h", "setting": "[14]", "result": 108000, "unit": "ng·h/mL"}, {"measurement": "inhibition at 10 µM", "setting": "CYP2C9", "result": 0, "unit": "%"}, {"measurement": "inhibition at 1 µM", "setting": "CYP2D6", "result": 4, "unit": "%"}, {"measurement": "remaining at 1 h", "setting": "[15]", "result": "~30", "unit": "%"}, {"measurement": "fraction unbound at 16 h", "setting": "[16]", "result": "< 0.01"}, {"measurement": "Tmax", "setting": "[17]", "result": 0.25, "unit": "h"}, {"measurement": "Activity", "setting": "Rattus norvegicus", "result": 96, "unit": "%"}, {"measurement": "AUC(0-t)", "setting": "[18]", "result": 1840, "unit": "ng·h/mL"}, {"measurement": "solubility kinetic at 16 h, 500 µM", "setting": "[19]", "result": "> 200", "unit": "µM"}, {"measurement": "clearance", "setting": "[20]", "result": 2.6, "unit": "mL/min/kg"}, {"measurement": "Activity", "setting": "[21]", "result": 100, "unit": "%"}, {"measurement": "Tmax", "setting": "[22]", "result": 1.7, "unit": "h"}, {"measurement": "solubility kinetic at 16 h, 500 µM", "setting": "[23]", "result": "> 200", "unit": "µM"}, {"measurement": "IC50", "setting": "Cytochrome P450 2B6", "result": 64, "unit": "µM"}, {"measurement": "solubility kinetic at 16 h, 500 µM", "setting": "[24]", "result": "> 200", "unit": "µM"}]}]}
